The values that follow come from PMC3983855, “Identification and enzymatic characterization of acid phosphatase from Burkholderia gladioli” (BMC Research Notes, 2014).

This experiment has as its system membrane-bound acid phosphatase (MBAcP). Particulars: read-out: K0.5; 50 mM acetate pH 6.0, 37°C; membrane fraction; n = 1.3.

Structures are written as SMILES.

Take `O=[N+]([O-])c1ccc(OP(=O)(O)O)cc1` [p-nitrophenylphosphate]: the Km amounted to 65 µM.
